The source made the active and inactive calls.
How the values were obtained:
Assay type in all cases: functional
[1] = target: Dual specificity protein kinase CLK2 (Homo sapiens, UniProt P49760)
[2] = target: Tyrosine-protein kinase JAK2 (Homo sapiens, UniProt O60674);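 note: JAK2 tested as one member of a kinase panel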
[3] = target: Serine/threonine-protein kinase TBK1 (Homo sapiens, UniProt Q9UHD2); assay: Navigating the Kinome. Panel member name: TBK1
[4] = target: ALK tyrosine kinase receptor (Homo sapiens, UniProt Q9UM73);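 note: ALK tested as one member of a kinase panel screen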
[5] = target: Proto-oncogene tyrosine-protein kinase receptor Ret (Homo sapiens, UniProt P07949);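 note: measured within a kinome-wide profiling panel, RET as the panel member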
Chain of Proto-oncogene tyrosine-protein kinase receptor Ret (P07949 whole entry): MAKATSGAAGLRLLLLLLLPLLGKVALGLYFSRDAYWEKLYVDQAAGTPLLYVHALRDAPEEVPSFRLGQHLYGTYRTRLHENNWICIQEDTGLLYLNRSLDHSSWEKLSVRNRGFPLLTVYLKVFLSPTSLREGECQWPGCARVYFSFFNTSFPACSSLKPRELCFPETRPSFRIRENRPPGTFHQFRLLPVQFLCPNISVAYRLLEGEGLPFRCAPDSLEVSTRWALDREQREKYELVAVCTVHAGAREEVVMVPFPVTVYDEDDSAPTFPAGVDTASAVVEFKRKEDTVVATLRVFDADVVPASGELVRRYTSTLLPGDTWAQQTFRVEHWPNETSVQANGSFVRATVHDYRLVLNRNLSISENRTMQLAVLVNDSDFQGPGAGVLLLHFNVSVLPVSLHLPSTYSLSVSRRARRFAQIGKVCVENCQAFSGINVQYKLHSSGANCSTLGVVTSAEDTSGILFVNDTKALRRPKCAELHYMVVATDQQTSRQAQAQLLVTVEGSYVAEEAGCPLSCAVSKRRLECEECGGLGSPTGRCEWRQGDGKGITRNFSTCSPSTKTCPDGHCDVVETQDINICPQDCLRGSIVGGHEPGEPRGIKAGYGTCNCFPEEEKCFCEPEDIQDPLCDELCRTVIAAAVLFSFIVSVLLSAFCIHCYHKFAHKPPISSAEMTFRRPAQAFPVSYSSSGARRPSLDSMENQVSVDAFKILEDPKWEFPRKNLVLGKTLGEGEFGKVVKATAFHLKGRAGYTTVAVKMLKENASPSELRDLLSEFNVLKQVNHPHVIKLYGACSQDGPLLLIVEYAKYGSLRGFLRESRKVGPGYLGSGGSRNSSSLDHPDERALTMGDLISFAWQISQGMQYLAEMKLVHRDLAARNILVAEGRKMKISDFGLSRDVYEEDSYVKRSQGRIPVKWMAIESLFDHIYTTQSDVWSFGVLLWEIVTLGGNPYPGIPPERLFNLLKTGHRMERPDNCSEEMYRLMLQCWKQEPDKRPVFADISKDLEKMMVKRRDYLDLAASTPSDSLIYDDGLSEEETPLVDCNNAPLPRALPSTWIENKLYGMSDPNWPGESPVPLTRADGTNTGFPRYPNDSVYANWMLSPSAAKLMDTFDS

[6] = target: Tyrosine-protein kinase receptor TYRO3 (Homo sapiens, UniProt Q06418);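 note: TYRO3 value obtained as one member of a kinome-wide profiling panel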
[7] = target: T1, Serine/threonine-protein kinase D3 (Homo sapiens, UniProt O94806);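 note: determined within a kinase panel screen, with PRKCN as the panel member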
T1 sequence (O94806 whole entry): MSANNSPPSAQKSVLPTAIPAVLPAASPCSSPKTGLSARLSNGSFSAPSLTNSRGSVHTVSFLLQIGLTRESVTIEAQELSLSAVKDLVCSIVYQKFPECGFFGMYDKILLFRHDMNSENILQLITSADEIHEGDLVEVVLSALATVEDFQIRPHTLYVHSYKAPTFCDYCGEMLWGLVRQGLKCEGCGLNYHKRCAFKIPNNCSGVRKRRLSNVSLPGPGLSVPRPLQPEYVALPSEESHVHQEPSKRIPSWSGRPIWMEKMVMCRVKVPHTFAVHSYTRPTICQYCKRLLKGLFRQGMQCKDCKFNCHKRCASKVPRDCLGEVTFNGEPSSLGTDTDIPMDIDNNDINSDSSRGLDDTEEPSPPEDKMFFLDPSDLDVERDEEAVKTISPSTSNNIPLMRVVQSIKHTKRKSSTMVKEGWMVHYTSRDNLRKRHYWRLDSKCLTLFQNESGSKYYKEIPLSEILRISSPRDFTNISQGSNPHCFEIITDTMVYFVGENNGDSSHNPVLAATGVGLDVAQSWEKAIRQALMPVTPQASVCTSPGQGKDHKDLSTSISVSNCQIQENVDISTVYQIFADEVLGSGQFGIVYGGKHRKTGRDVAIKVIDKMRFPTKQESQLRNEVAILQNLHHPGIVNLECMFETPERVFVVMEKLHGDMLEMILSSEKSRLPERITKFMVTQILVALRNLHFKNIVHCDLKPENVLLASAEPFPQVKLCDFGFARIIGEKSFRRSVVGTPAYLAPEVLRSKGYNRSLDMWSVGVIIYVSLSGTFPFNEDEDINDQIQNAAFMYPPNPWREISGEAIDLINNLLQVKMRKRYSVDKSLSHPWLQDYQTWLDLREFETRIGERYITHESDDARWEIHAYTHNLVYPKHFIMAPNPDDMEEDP

[8] = target: Death-associated protein kinase 3 (Homo sapiens, UniProt O43293);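 note: measured as one member of a kinome-wide profiling panel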
[9] = target: Mitogen-activated protein kinase 8 (Homo sapiens, UniProt P45983);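 note: value comes from one member of a kinome-wide kinase profiling panel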
[10] = target: Serine/threonine-protein kinase pim-1 (Homo sapiens, UniProt P11309)
Chain of Serine/threonine-protein kinase pim-1 (P11309 whole entry): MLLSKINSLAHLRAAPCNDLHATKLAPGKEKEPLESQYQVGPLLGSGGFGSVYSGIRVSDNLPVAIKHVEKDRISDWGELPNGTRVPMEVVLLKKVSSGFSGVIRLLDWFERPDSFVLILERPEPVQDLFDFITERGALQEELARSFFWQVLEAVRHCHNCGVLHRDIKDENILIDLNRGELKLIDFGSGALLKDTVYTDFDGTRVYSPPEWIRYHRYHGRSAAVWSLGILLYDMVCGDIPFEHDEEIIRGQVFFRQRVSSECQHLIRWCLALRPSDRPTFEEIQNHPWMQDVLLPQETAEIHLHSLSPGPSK

[11] = target: Tyrosine-protein kinase BTK (Homo sapiens, UniProt Q06187)
[12] = target: Serine/threonine-protein kinase PAK 4 (Homo sapiens, UniProt O96013);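 note: value obtained within a kinome profiling panel in which PAK4 was one of the panel members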
[13] = target: Fibroblast growth factor receptor 1 (Homo sapiens, UniProt P11362)
[14] = target: Casein kinase I isoform alpha (Homo sapiens, UniProt P48729)
[15] = target: Tyrosine-protein kinase JAK3 (Homo sapiens, UniProt P52333)
[16] = target: Mitogen-activated protein kinase 9 (Homo sapiens, UniProt P45984);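 note: value from a kinome panel profiling assay, MAPK9 panel entry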
[17] = target: High affinity nerve growth factor receptor (Homo sapiens, UniProt P04629);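 note: NTRK1 tested as one member of a kinome-wide profiling panel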
[18] = target: Mitogen-activated protein kinase kinase kinase kinase 2 (Homo sapiens, UniProt Q12851);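 note: measured as one member of a kinome-wide kinase panel, with MAP4K2 as the panel entry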
Activated CDC42 kinase 1 = Activated CDC42 kinase 1 (Homo sapiens, UniProt Q07912); assay: Navigating the Kinome. Panel member name: ACK1
[19] = target: Cyclin-dependent kinase 5 (Homo sapiens, UniProt Q00535);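 note: CDK5 measured as one member of a kinase profiling panel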
[20] = target: Insulin-like growth factor 1 receptor (Homo sapiens, UniProt P08069); assay: Navigating the Kinome. Panel member name: IGF1R
Chain of Insulin-like growth factor 1 receptor (P08069 31-736 limits assumed): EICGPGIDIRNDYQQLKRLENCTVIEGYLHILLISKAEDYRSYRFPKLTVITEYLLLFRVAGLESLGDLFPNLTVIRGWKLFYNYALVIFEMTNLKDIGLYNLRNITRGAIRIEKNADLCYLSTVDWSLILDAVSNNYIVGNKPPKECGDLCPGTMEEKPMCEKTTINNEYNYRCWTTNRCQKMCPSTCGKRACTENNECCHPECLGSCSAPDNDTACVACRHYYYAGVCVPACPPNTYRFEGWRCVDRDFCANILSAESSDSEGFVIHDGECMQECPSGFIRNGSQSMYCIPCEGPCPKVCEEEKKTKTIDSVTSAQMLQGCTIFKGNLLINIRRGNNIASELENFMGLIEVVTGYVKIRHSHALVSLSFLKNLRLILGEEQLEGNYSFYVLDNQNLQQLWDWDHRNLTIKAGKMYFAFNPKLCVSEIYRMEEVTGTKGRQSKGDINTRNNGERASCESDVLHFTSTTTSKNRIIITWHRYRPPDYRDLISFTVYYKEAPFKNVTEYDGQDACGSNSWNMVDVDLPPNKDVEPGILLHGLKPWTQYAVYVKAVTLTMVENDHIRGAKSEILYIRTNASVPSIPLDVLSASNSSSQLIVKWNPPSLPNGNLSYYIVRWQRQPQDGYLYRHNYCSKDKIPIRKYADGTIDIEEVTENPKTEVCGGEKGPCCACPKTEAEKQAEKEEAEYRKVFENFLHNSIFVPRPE
Chain of Insulin-like growth factor 1 receptor (P08069 741-1367 limits assumed): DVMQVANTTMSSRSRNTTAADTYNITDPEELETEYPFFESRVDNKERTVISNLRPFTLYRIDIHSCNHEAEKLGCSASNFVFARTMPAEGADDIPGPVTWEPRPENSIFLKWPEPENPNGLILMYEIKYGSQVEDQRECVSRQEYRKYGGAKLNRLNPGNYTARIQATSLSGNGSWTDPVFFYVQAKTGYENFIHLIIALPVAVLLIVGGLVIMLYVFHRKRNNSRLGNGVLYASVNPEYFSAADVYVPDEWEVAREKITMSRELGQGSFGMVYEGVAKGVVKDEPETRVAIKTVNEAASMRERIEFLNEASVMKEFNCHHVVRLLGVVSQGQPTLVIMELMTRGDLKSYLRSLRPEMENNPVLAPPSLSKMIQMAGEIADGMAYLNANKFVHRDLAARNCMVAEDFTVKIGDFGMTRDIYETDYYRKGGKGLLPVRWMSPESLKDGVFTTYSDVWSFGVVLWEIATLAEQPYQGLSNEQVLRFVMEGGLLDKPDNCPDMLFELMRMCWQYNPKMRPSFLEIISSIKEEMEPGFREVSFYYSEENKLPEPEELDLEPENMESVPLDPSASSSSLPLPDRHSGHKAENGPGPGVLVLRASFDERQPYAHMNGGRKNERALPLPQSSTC

[21] = target: Dual specificity tyrosine-phosphorylation-regulated kinase 1B (Homo sapiens, UniProt Q9Y463); assay: Navigating the Kinome. Panel member name: DYRK1B
[22] = target: cAMP-dependent protein kinase catalytic subunit PRKX (Homo sapiens, UniProt P51817)
[23] = target: Platelet-derived growth factor receptor alpha (Homo sapiens, UniProt P16234); assay: Navigating the Kinome. Panel member name: PDGFRA
[24] = target: Rho-associated protein kinase 1 (Homo sapiens, UniProt Q13464);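 note: measured within a broad kinome-wide panel profiling many kinases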
Chain of Rho-associated protein kinase 1 (Q13464 whole entry): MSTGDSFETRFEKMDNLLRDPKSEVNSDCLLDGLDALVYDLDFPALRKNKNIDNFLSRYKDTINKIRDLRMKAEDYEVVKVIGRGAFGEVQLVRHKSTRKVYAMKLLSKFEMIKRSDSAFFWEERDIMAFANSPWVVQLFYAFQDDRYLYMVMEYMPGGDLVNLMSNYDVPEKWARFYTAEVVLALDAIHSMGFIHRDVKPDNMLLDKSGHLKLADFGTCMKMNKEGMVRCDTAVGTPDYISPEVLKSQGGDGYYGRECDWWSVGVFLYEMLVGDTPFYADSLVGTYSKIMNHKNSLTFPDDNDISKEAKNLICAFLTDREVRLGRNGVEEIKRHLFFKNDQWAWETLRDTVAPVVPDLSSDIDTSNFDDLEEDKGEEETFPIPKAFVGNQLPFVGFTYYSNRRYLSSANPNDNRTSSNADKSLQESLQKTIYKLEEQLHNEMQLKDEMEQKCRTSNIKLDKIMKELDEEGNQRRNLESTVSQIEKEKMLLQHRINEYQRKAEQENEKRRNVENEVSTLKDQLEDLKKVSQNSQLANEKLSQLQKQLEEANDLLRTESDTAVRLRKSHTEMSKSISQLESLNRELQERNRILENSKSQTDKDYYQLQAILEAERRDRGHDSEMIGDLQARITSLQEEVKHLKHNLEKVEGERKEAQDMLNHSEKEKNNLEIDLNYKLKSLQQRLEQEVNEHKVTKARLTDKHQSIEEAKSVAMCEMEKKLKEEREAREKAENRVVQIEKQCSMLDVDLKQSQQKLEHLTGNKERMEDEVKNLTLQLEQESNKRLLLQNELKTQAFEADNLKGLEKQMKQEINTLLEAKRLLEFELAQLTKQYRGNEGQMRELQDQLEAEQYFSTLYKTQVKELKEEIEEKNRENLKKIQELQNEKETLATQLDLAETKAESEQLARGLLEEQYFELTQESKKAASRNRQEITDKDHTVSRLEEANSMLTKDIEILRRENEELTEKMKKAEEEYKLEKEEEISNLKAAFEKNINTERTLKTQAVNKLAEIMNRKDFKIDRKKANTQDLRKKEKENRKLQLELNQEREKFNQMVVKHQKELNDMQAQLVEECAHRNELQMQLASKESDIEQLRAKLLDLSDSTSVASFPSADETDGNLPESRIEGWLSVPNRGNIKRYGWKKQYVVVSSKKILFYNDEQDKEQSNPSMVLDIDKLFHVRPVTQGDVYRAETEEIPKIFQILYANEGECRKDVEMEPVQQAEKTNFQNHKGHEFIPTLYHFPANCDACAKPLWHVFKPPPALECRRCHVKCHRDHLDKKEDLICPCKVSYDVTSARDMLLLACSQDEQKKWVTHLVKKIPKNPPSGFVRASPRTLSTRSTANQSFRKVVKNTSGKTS

[25] = target: Tyrosine-protein kinase Fyn (Homo sapiens, UniProt P06241)
[26] = target: Cyclin-dependent kinase 8 (Homo sapiens, UniProt P49336); assay: Navigating the Kinome. Panel member name: CDK8
[27] = target: Cyclin-dependent kinase 7 (Homo sapiens, UniProt P50613);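 note: value comes from a kinome-wide kinase profiling panel in which CDK7 is one member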
[28] = target: Cyclin-dependent kinase 9 (Homo sapiens, UniProt P50750);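 note: value from the CDK9 entry of a kinome-spanning kinase panel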
[29] = target: BDNF/NT-3 growth factors receptor (Homo sapiens, UniProt Q16620);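 note: NTRK2 measured as one member of a broad kinome-wide kinase profiling panel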
[30] = target: Mitogen-activated protein kinase kinase kinase kinase 4 (Homo sapiens, UniProt O95819)
[31] = target: Macrophage-stimulating protein receptor (Homo sapiens, UniProt Q04912); assay: Navigating the Kinome. Panel member name: MST1R
[32] = target: Dual specificity mitogen-activated protein kinase kinase 2 (Homo sapiens, UniProt P36507); assay: Navigating the Kinome. Panel member name: MAP2K2
[33] = target: Dual specificity tyrosine-phosphorylation-regulated kinase 1A (Homo sapiens, UniProt Q13627);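 note: measured against DYRK1A as one member of a broad kinome profiling panel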
[34] = target: Mitogen-activated protein kinase 14 (Homo sapiens, UniProt Q16539);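 note: part of a kinome-wide panel, MAPK14 entry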

Chain of Serine/threonine-protein kinase TBK1 (Q9UHD2 whole entry): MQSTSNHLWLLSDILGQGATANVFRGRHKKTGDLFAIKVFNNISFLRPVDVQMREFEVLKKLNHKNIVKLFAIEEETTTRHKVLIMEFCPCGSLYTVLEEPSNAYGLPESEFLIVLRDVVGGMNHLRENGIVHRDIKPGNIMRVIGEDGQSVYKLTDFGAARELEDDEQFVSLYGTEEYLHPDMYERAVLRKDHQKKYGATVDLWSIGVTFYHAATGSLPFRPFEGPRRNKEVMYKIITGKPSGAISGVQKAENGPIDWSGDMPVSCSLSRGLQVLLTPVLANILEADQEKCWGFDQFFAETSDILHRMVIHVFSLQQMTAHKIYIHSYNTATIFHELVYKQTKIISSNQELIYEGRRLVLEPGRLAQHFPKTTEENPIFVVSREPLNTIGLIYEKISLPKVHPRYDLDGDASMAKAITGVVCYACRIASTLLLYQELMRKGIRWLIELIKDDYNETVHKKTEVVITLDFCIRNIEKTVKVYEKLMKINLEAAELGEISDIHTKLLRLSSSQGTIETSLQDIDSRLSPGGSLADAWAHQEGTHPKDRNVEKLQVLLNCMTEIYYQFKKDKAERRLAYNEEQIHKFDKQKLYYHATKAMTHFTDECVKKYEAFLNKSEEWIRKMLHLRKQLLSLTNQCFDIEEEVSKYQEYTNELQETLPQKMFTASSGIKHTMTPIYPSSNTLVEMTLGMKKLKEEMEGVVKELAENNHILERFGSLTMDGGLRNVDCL

| Structure (SMILES) | Ki [1] | Ki [2] | Ki [3] | Ki [4] | Ki [5] | Ki [6] | Ki [7] | Ki [8] | Ki [9] | Ki [10] | Ki [11] | Ki [12] | Ki [13] | Ki [14] | Ki [15] | Ki [16] | Ki [17] | Ki [18] | Ki (Activated CDC42 kinase 1) | Ki [19] | other results |
| --- | --- | --- | --- | --- | --- | --- | --- | --- | --- | --- | --- | --- | --- | --- | --- | --- | --- | --- | --- | --- | --- |
| CCCOc1cccc(C(C)NC(=O)c2ccc(-c3ccncc3F)cc2)c1 (stereo not given) | > 3.98 µM (inactive) | > 2.51 µM (inactive) | > 3.16 µM (inactive) | > 6.31 µM (inactive) | > 3.16 µM (inactive) | > 3.16 µM (inactive) | > 3.98 µM (inactive) | > 5.01 µM (inactive) | > 5.01 µM (inactive) | > 6.31 µM (inactive) | > 6.31 µM (inactive) | > 5.01 µM (inactive) | > 3.98 µM (inactive) | > 3.98 µM (inactive) | > 5.01 µM (inactive) | > 3.98 µM (inactive) | > 3.16 µM (inactive) | > 2.51 µM (inactive) | > 3.98 µM (inactive) | > 3.16 µM (inactive) | Ki [20]: > 2.51 µM (inactive); Ki [21]: > 2.51 µM (inactive); Ki [22]: 0.501 µM (active); Ki [23]: > 2.51 µM (inactive); Ki [24]: 0.000794 µM (active); Ki [25]: > 6.31 µM (inactive); Ki [26]: > 3.98 µM (inactive); Ki [27]: > 3.98 µM (inactive); Ki [28]: > 1.58 µM (inactive); Ki [29]: > 3.98 µM (inactive); Ki [30]: > 5.01 µM (inactive); Ki [31]: > 3.98 µM (inactive); Ki [32]: > 3.98 µM (inactive); Ki [33]: > 2 µM (inactive); Ki [34]: > 3.98 µM (inactive) |
| COc1cccc(C(C)NC(=O)c2cnc(-c3ccncc3)nc2)c1 (stereo not given) | > 3.98 µM (inactive) | > 2.51 µM (inactive) | > 3.16 µM (inactive) | > 6.31 µM (inactive) | > 3.16 µM (inactive) | > 3.16 µM (inactive) | > 3.98 µM (inactive) | > 5.01 µM (inactive) | > 5.01 µM (inactive) | > 6.31 µM (inactive) | > 6.31 µM (inactive) | > 5.01 µM (inactive) | > 3.98 µM (inactive) | > 3.98 µM (inactive) | > 5.01 µM (inactive) | > 3.98 µM (inactive) | > 3.16 µM (inactive) | > 2.51 µM (inactive) | > 3.98 µM (inactive) | > 3.16 µM (inactive) | Ki [20]: > 2.51 µM (inactive); Ki [21]: > 2.51 µM (inactive); Ki [22]: 1.26 µM (active); Ki [23]: > 2.51 µM (inactive); Ki [24]: 0.00398 µM (active); Ki [25]: > 6.31 µM (inactive); Ki [26]: > 3.98 µM (inactive); Ki [27]: > 3.98 µM (inactive); Ki [28]: > 1.58 µM (inactive); Ki [29]: > 3.98 µM (inactive); Ki [30]: > 5.01 µM (inactive); Ki [31]: 0.398 µM (active); Ki [32]: > 3.98 µM (inactive); Ki [33]: > 2 µM (inactive); Ki [34]: > 3.98 µM (inactive) |
